Measured values reported in patent US4229435A, “Preparation of blood fraction” (priority 1978, dated 1980).

Experiments:
Assay type in all cases: biochemical
[1] = target: T1, F XII (Homo sapiens, UniProt P00748); assay: Coagulation factor XII activity in plasma after reducing agent + iodoacetic acid; conditions: 5 min 37° C., then iodoacetic acid
T1 construct: from tissue; host or cells: human citrated blood plasma
T1 sequence (P00748 20-615): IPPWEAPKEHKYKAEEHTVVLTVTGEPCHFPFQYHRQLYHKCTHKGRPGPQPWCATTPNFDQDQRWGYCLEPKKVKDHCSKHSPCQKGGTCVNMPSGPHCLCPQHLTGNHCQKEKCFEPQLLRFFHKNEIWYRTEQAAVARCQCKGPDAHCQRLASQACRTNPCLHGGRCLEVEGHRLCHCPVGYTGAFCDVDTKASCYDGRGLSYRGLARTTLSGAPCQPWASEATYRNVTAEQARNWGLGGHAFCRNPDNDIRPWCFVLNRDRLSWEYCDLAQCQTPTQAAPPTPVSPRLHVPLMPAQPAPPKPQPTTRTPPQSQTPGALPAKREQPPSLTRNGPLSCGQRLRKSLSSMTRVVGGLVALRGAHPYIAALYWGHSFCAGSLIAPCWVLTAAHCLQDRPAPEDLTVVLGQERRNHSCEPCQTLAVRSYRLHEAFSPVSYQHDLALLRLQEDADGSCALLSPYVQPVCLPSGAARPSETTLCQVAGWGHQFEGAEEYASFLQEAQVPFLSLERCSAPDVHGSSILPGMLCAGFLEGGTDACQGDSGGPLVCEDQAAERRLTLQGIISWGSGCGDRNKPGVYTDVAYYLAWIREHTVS
Procedure: Human blood with anti-coagulating agent (9 parts blood+1 part 3.8% trisodium citrate) is centrifuged and the following tests with plasma were carried out:
The plasma is divided into 8 ml portions, which are preheated at 37° C. for 5 min. DTT is added in different concentrations, see table 1 below, and is incubated for 5 min. at 37° C. Then iodoacetic acid, 3 mol per mol DTT, is added, and incubation takes place for 15 min. at 37° C. The plasma samples are distributed in portions of about 0.2 ml and are immediately frozen at -70° C. Testing of different coagulation factors is made in known manner.
(§1) The plasma is divided into 8 ml portions, which are preheated at 37° C. for 5 min. DTE is added in different concentrations (see table 2), and is incubated for 5 minutes at 37° C. Then, iodoacetic acid (3 mol per mol DTE) is added and incubation is carried out for 15 minutes at 37° C. The plasma samples are distributed in portions of about 0.2 ml and are immediately frozen at -70° C. Testing of different coagulation factors is made in a manner known per se.
as §1, with “minutes. Lipoic acid” for “min. DTE”, “3),” for “2),”, “lipoic acid)” for “DTE)”
as §1, with “minutes. Mercaptoethanol” for “min. DTE”, “4),” for “2),”, “mercaptoethanol)” for “DTE)”
as §1, with “minutes. Potassium borohydride” for “min. DTE”, “5,” for “2),”, “potassium borohydride)” for “DTE)”

[2] = test system: factor IX; assay: Selective decrease of coagulation activity at low temperature (Example 7); conditions: 0.2 mg DTT per ml plasma, 22° C.
Procedure: By addition of reducing agent, e.g. 0.2 mg DTT per ml plasma, at a low temperature, e.g. 22° C., it is possible to selectively influence the decrease of the coagulation activity in the different factors.

[3] = test system: coagulation factors VII, IX, X, XI and XII; assay: Effect of reducing substance added to blood or plasma on coagulation factors; conditions: addition to blood
[4] = human, 0.1 mg reducing agent/ml plasma (sample C)

`O[C@H](CS)[C@@H](O)CS` [DTE, dithioerythritol] was tested, and the activity at 100 µg/mL [1, 4] was 78%, the “Coagulation factor F XII” value ([1]; plasma + 0.2 mg reducing agent) was 1 % of control and the “Coagulation factor F XII” value ([1]; plasma + 0.4 mg reducing agent) was 0 % of control.

In the case of `O[C@H](CS)[C@H](O)CS` [DTT, dithiothreitol], the “activity of factor IX compared with factor X” value [2] is reported as “the activity of factor IX is not influenced in as high a degree as the activity of factor X”, the activity at 100 µg/mL [1, 4] is reported as 78% and the activity at 600 µg/mL ([1]; human, 0.6 mg reducing agent/ml plasma) is reported as 0%. The activity at 100 µg/mL ([1]; human, Table 1 sample D, 0.1 mg DTT/ml plasma) was 18%, the “Coagulation factor F XII” value ([1]; plasma + 0.4 mg reducing agent) was 0 % of control and the “content of coagulation factors VII, IX, X, XI and XII in the resulting plasma” value [3] was “reduces the content of the coagulation factors VII, IX, X, XI and XII to a large extent”.

For `[BH4-].[K+]` [KBH4, potassium borohydride], the “Coagulation factor F XII” value ([1]; plasma + 0.14 mg reducing agent) was 86 % of control and the “Coagulation factor F XII” value ([1]; plasma + 0.28 mg reducing agent) was 83 % of control.

`O=C(O)CCCCC1CCSS1` (stereo not shown) [lipoic acid] was tested, and the activity at 100 µg/mL [1, 4] was 74%, the “Coagulation factor F XII” value ([1]; plasma + 0.2 mg reducing agent) was 78 % of control and the “Coagulation factor F XII” value ([1]; plasma + 0.4 mg reducing agent) was 98 % of control.

`OCCS` [mercaptoethanol] was tested, and the “Coagulation factor F XII” value ([1]; plasma + 0.2 mg reducing agent) was 102 % of control and the “Coagulation factor F XII” value ([1]; plasma + 0.4 mg reducing agent) was 121 % of control.
